Results: patent publication US6673840B1, “Use of lipoxygenase metabolite of arachidonic acid and its derivatives in capsaicin-channel agonist” (priority 1998, dated 2004)
Entries after “also recorded” stand apart in the source; their conditions may differ.

Assays:
CAP channel [1] = biological target: T1, CAP channel (Rattus norvegicus, UniProt O35433); test: single channel current recording with patch clamp technique, inside-out membrane patches of cultured sensory neurons; format: cell-based; details: for Hill coefficient: concentration-response curve of channel activation; for amplitude of the single channel currents: membrane potential of 60 mV; for relative agonistic potency (Po as percentage of Po at 0.5 μM CAP): metabolites at 10~20 μM; for generation of single channel currents (activation of CAP channel): applied to intracellular side of membrane patch, CAP 0.5 μM, 12-HPETE 2 μM
T1 construct: administered at an amount of 10˜20 μM to the membrane patches of cultured sensory neurons; endogenous in cells; host or cells: cultured sensory neurons (inside-out membrane patches)
Method: In the present invention, use was made of a single channel recording method with the aid of a patch clamp technique (Hamill et al., Pfl gers Arch 391:85-100, 1981) in order to know whether lipoxygenase metabolites activate CAP channels or receptors or not. […] Because the tests are performed in isolated membrane patches without the mediation of intracellular second messengers, lipoxygenase metabolites are believed to exert a direct action on the CAP channel.
An examination was made on the efficiency with which the various lipoxygenase metabolites activate CAP channels. To this end, a patch clamp technique was used to record the single channel current generated in the CAP channel to which various lipoxygenase metabolites were applied to measure the open probability (Po) of the CAP channel. To compare the relative potency of each metabolite, the effects of the lipoxygenase metabolites on CAP channels were measured with a reference to 0.5 μM CAP.
A single channel current recording method using a patch clamp technique (Hamill et al., supra; Oh et al., 1996a) was used to know whether the lipoxygenase metabolites directly activate the CAP channel.
Because the binding site of CAP was located on the intracellular side of the channel (Oh et al., 1996b), the metabolites were applied to the intracellular sides of cell membrane patches.
In order to compare the agonistic potencies of the various metabolites synthesized by the action of various lipoxygenases, one patch was administered with 0.5 μM of CAP and then, with various lipoxygenase metabolites. At each experiment, the open probabilities (Po) of the channel attributable to the metabolites were recorded and calculated as a percentage to the open probability obtained at 0.5 μM CAP.
All of the lipoxygenase metabolites tested were administered at an amount of 10˜20 μM to the membrane patches of cultured sensory neurons. The relative potency of the metabolites in activating the channel was depicted in FIG. 7. As apparent from this histogram, almost all of the lipoxygenase metabolites, if different in agonistic potency, activate the CAP channel.
12-HPETE was administered at various concentrations from 0.25 to 20 μM to the cell membrane patches of sensory nerve cells, in order to plot a concentration-response curve. As a result, FIG. 8a was obtained. […] Returning now to FIG. 8a, the channel activation currents obtained at each 12-HPETE concentration were calculated as relative degrees to the channel activation current obtained at 20 μM of 12-HEPETE. The relative channel degrees were plotted against the concentrations of […] 12-HPETE and the resulting plot followed the Hill equation.

[2] = test system: sensory nerve fibers (c-fibers) of the skin; test: skin-nerve preparation, action potentials of cutaneous pain nerve c-fibers; set-up: species or system rats
Method: To recognize whether the excitation of BK on nerve cells is accomplished via the arachidonic acid-lipoxygenase-CAP pathway, in vivo, a measurement was made on the action potentials in the sensory nerve fibers of the rats, as shown in FIGS. 13a and 13b. particularly, pain nerves which exist in the skin were isolated, together with a overlapping area of the skin, and the action potentials were measured from the nerve filaments using skin-nerve preparation (Reeh, 1998; Steen et al., 1992, 1995) as schematically illustrated in FIG. 13a. While unit action potentials measured at the sensory nerve fibers isolated from the skin, frequencies of the action potentials induced by the administration of BK were recorded. An increase in frequency of the action potentials means excitation of the sensory nerves.
The transmission speed of nerve signals were measured and only c-fibers (non-myelinated sensory nerve fibers) were used in the BK response experiment. The reason why c-fibers are used only is that they consist mainly of pain nerve cells (Willis and Coggeshall, 1991; Yaksh, 1986).
With reference to FIG. 13b, there are illustrated the action potential behaviors of the cutaneous pain nerve in response to agonist and antagonist samples. […] In order to recognize whether the nerve excitation of BK was attributed to the opening of CAP channels, CZP was administered at a dose of 10 μM, together with BK, to the skin. […] An experiment in which BK was administered alone or in combination with CZP to the skin, was repeated 20 times with the aim of testing the influence which BK and a combination of BK and CZP had on the activation of nerve cells, and the results are summarized as shown in FIG. 13c.
When the sensory nerve fibers were excited in response to BK, inhibitors against the enzymes required for the arachidonic acid-lipoxygenase-CAP receptor pathway were used in order to identify whether the response passed through the pathway. In the histogram of FIG. 14, the bar length of each inhibitor represents % activation relative to the activation effect obtained when BK was used alone in absence of any inhibitor. For example, CZP, if added along with BK, suppressed the activation response to BK by approximately […].

[3] = test system: cultured sensory nerve cells; test: whole-cell currents in cultured sensory nerve cells in response to BK; format: cell-based; details: CZP 10 μM; 5 μM of BK
Description: When taking various experimental results previously obtained into account, it was inferred that BK has a possibility to open CAP channels through the arachidonic acid-lipoxygenase pathway. To confirm this inference, an examination was made regarding whether the currents generated in cultured sensory nerve sells in response to BK were diminished by CZP or other lipoxygenase inhibitors. If BK made CAP channel open via the arachidonic acid-lipoxygenase pathway, the current response to BK must be reduced by CZP. However, rarely did the cultured cells respond to BK.

CAP channel [4] = biological target: T1, CAP channel; test: single channel current recording with patch clamp technique, inside-out membrane patches of cultured sensory neurons; format: cell-based

T1 sequence (O35433 whole entry): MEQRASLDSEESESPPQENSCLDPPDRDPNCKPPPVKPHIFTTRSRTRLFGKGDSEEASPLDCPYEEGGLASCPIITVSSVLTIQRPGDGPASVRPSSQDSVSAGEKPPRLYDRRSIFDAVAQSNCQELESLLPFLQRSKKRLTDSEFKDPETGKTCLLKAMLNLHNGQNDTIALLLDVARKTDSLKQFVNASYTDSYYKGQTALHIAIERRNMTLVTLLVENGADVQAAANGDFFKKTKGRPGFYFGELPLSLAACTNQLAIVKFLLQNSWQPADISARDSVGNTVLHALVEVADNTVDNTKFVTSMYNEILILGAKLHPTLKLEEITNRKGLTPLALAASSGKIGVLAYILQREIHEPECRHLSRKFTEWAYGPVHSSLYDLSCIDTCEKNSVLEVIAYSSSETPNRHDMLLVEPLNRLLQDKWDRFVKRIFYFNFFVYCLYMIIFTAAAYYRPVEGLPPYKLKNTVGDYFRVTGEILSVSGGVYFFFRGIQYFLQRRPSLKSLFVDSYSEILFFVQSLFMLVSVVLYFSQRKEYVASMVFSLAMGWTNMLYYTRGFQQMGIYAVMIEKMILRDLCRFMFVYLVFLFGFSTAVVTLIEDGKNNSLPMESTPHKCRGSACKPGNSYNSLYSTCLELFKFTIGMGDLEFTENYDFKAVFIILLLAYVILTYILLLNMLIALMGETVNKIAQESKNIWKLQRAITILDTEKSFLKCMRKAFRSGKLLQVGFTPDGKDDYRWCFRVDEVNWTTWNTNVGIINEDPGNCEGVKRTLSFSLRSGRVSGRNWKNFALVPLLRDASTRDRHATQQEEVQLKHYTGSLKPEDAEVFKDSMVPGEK

CCCCC/C=C\CC(/C=C/C=C\C/C=C\CCCC(=O)O)OO (centres unmarked) [12-HPETE, 12-hydroperoxyeicosatetraenoic acid]
patches in which activation of CAP channels was detected (CAP channel [1]; 12-HPETE 2-20 μM, of the 97 patch samples tested): 88 patches | Po channel open probability (CAP channel [1]; 12-HPETE alone, increased from 0.0, n=4): 0.019±0.0002 | reversal potential (CAP channel [1]; bi-ionic system 140 mM Na+ / 140 mM K+, 2~10 μM 12-HPETE): −1.71±0.49 mV | permeability ratio of K+/Na+ (PK/PNa) (CAP channel [1]; calculated from bi-ionic system experiment): 1.1 | Hill coefficient (CAP channel [1]): 2.4 | amplitude of the single channel currents (CAP channel [1]): 2.68±0.012 pA | relative agonistic potency (Po as percentage of Po at 0.5 μM CAP) (CAP channel [1]): most potent endogenous agonist; also recorded: highest agonistic potency

COc1cc(CNC(=O)CCCC/C=C/C(C)C)ccc1O [CAP, capsaicin]
generation of single channel currents (activation of CAP channel) (CAP channel [1]): single channel current which was greatly generated | Hill coefficient (CAP channel [1]): 2.4 | amplitude of the single channel currents (CAP channel [1]): 2.72±0.06 pA | action potentials of the nerve fibers (excitation) ([2]; administered to skin patch, BK 1 μM): largely increased action potentials

Oc1cc2c(cc1O)CN(C(=S)NCCc1ccc(Cl)cc1)CCC2 [CZP, capsazepine]
effect on single channel currents activated by 12-HPETE (CAP channel [1]; 10 μM of CZP present): single channel currents were not observed | Po channel open probability (CAP channel [1]; co-existence of 10 μM of CZP and 10 μM of 12-HPETE): 0.001±0.000002 | effect on current generated by BK [3]: reduced the current | effect on response of skin nerve to BK ([2]; CZP 10 μM together with BK): Great suppression

COc1ccc2c(c1)c(CC(=O)O)c(C)n2C(=O)c1ccc(Cl)cc1 [INDO, indomethacin]
effect on the BK response ([2]; 2 μM indomethacin): failed to inhibit the BK response

CC(Cc1ccc(O)c(O)c1)C(C)Cc1ccc(O)c(O)c1 (centres unmarked) [NDGA, nordihydroguaiaretic acid]
effect on single channel current generated by arachidonic acid (CAP channel [4]; NDGA administered together with arachidonic acid): reversibly controlled depending on the presence or absence of NDGA | lowering of the activation of BK ([2]; 50 μM of NDGA, relative to BK alone): 70%

CCCCC[C@H](O)/C=C/[C@H]1C(=O)C[C@H](O)[C@@H]1C/C=C\CCCC(=O)O [PGD2]
generation of single channel currents (activation of CAP channel) (CAP channel [1]): no channel currents were generated

CCCCC[C@H](O)/C=C/[C@H]1[C@H](O)CC(=O)[C@@H]1C/C=C\CCCC(=O)O [PGE2, prostaglandin E2]
generation of single channel currents (activation of CAP channel) (CAP channel [1]): no channel currents were generated

CCCCC[C@H](O)/C=C/[C@@H]1[C@H]2C/C(=C/CCCC(=O)O)O[C@H]2C[C@H]1O [PGI2]
generation of single channel currents (activation of CAP channel) (CAP channel [1]): no channel currents were generated

CCN(CC)CCCC(C)Nc1c2ccc(Cl)cc2nc2ccc(OC)cc12 (centres unmarked) [QN, Quinacrine]
suppressive effect on the activation response to BK ([2]; relative to BK alone): 70%

CCCCC/C=C\C/C=C\C/C=C\C/C=C\CCCC(=O)O [arachidonic acid]
experiments in which channel currents were weakly induced (CAP channel [4]; arachidonic acid 10 to 50 μM): 54% | experiments in which the CAP channels were not activated (CAP channel [4]; arachidonic acid 10 to 50 μM): approximately 46% | trials in which the CAP channels were not activated (CAP channel [4]; arachidonic acid 10 to 50 μM, of 69 trials): 32 trials

CCCCC/C=C\C[C@@H](O)/C=C/C=C/C=C\[C@@H](O)CCCC(=O)O [leukotriene B4]
relative agonistic potency (Po as percentage of Po at 0.5 μM CAP) (CAP channel [1]): poor in the activation potency
